According to PMC6395927, “Rufomycin Targets ClpC1 Proteolysis in Mycobacterium tuberculosis and M. abscessus” (Antimicrobial Agents and Chemotherapy, 2019):
Values joined by “and” are separate entries in the source; they are usually repeats but may differ in a detail not shown here. Identical values can stand only once.

Key:
Type in all cases: cell-based, Mycobacterium tuberculosis
[1] = tested on: rRUFI M. tuberculosis strains (clpC1 mutants)
[2] = tested on: rECU M. tuberculosis strains (clpC1 mutants)
[3] = tested on: M. tuberculosis clinical isolates (pan-susceptible, MDR, XDR)

Molecule	MIC [1]	MIC [2]	activity against monoresistant, MDR, and XDR strains [3]
NNC(=O)c1ccncc1 [INH, isoniazid]	0.22 µM and 0.23 µM and 0.12 µM and 0.24 µM	–	–
CC(=O)NC[C@H]1CN(c2ccc(N3CCOCC3)c(F)c2)C(=O)O1 [LZD, linezolid]	–	2.5 µM and 1.9 µM and 1.6 µM	–
O=[N+]([O-])c1cn2c(n1)OC[C@@H](OCc1ccc(OC(F)(F)F)cc1)C2 [PA824, pretomanid]	<0.031 µM and 0.041 µM and 0.046 µM	<0.031 µM	–
C/C=C/C[C@@H]1NC(=O)[C@H](CC(C)C)N2C(=O)C(C[C@H](C)[C@H]2O)N(C)C(=O)[C@H](C)NC(=O)[C@H](Cc2ccc(O)c([N+](=O)[O-])c2)NC(=O)[C@H](CC(C)C)N(C)C(=O)[C@H](Cc2cn(C(C)(C)C3CO3)c3ccccc23)NC1=O (some centres unmarked) [RUFI, rufomycin I]	–	<0.01 µM and 0.017 µM	maintains activity
[H]/N=C(/N)N[C@H]1[C@H](O)[C@@H](O)[C@H](O[C@@H]2O[C@@H](C)[C@](O)(C=O)[C@H]2O[C@@H]2O[C@@H](CO)[C@H](O)[C@@H](O)[C@@H]2NC)[C@@H](N/C(N)=N\[H])[C@@H]1O [STR, streptomycin]	–	0.15 µM and 0.16 µM	–
capreomycin	–	0.42 µM and 0.49 µM	–
